Laboratory results reported in patent publication US12227782B2, “Method for producing protein” (priority 2018, dated 2025).

Test system: Trichoderma reesei X3AB1 strain
Assay: Test 1/Test 2: amount of protein produced (Bradford method) in culture supernatant
Type: cell-based
Method: Trichoderma reesei X3AB1 strain (J. Ind. Microbiol. Biotechnol., 2012, 174: 1-9; hereinafter, referred to as X3AB1 strain) was cultured in a cellulose-containing culture medium to produce a protein containing a cellulase. As preculture, 50 mL of a culture medium was added to a 500 mL flask, spores of X3AB1 strain were inoculated at 1×10^5 cells/mL, and shaking culture was performed at 220 rpm (PRXYg-98R from PRECI CO., LTD.) at 28° C. The culture medium composition was as follows: 1% glucose, 0.14% (NH4)2SO4, 0.2% KH2PO4, 0.03% CaCl2·2H2O, 0.03% MgSO4·7H2O, 0.1% Bacto Peptone (BD Difco), 0.05% Bacto Yeast extract (BD Difco), 0.1% TWEEN® 80 (polysorbate 80), 0.1% Trace element and 50 mM tartrate buffer (pH 4.0). The composition of the Trace element was as follows: 6 mg of H3BO3, 26 mg of (NH4)6Mo7O24·4H2O, 100 mg of FeCl3·6H2O, 40 mg of CuSO4·5H2O, 8 mg of MnCl2·4H2O and 200 mg of ZnCl2 which were diluted to 100 mL with distilled water.
Main culture was performed after 2 days of preculture. […]
The culture solutions obtained in Comparative Example 1 and Examples 1 and 2 were centrifuged. […] The concentration of protein in the supernatant was measured by the Bradford method. The protein concentration of the supernatant was calculated on the basis of a calibration curve with bovine γ-globulin as standard protein using Quick Start Protein Assay (BioRad) based on the Bradford method, and the protein concentration was defined as an amount of protein produced. […]
For the culture solutions obtained from Comparative Examples 2 and 3 and Examples 3 to 6, the amount of protein produced was measured in the same manner as in Test 1. […]

N[C@@H]1O[C@H](CO)[C@@H](O)[C@H](O)[C@H]1O [β-D-glucopyranosylamine]
increase of maximum amount of protein produced as compared to Comparative Example 1 (Example 1: 0.5% added to initial culture medium of main culture, maximum on day 3 of culture, 10% powder cellulose medium): ≥ 20% | increase of maximum amount of protein produced as compared to Comparative Example 1 (Example 2: 8% aqueous solution fed 0.6 g/L initial culture medium/hr at 15-63 hr (total 0.2%), maximum on day 4 of culture): ≥ 20% | protein productivity as the amount added in the culture increased (Examples 3 to 6: fed together with glucose (38% glucose/2% or 35% glucose/5% aqueous solution) versus 40% glucose feed (Comparative Examples 2 and 3)): tended to be improved
